# Measured values taken from patent US10004701B2, “Methods and compositions for treating infection” (UNIVERSITY OF ROCHESTER, priority 2012, dated 2018).
# Where a name gives a salt, the structure may show the parent alone. Read-outs that look alike come from different tables or passages of the source. Where a SMILES comes first, the peptide text is derived from it. [ ]: non-standard residue; d: D form. The star is where a group is joined. Sta = CC(C)C[C@H](N)[C@@H](O)CC(=O)O; Isovaleryl = CC(C)CC(=O)*
# What was measured:
# Assay in all cases: AK assay 384-well format, Prestwick library screening
# [1] = tested on: P. aeruginosa; assay type: cell-based, Pseudomonas aeruginosa; settings: 50 μM final drug concentration; for fold induction at 50 µM: Pseudomonas aeruginosa, 3 h
# [2] = tested on: S. aureus strain USA300-0114; assay type: cell-based, Staphylococcus aureus; settings: 50 μM final drug concentration; for fold induction at 50 µM: Staphylococcus aureus, USA300, 3 h
# [3] = tested on: K. pneumoniae; assay type: cell-based, Klebsiella pneumoniae; settings: 50 μM final drug concentration; for fold induction at 50 µM: Klebsiella pneumoniae, 3 h
# [4] = tested on: E. coli; assay type: cell-based, Escherichia coli; settings: 50 μM final drug concentration; for fold induction at 50 µM: Escherichia coli, 3 h
# [5] = tested on: E. faecium; assay type: cell-based, Enterococcus faecium; settings: 50 μM final drug concentration; for fold induction at 50 µM: Enterococcus faecium, 3 h
# [6] = tested on: E. cloacae; assay type: cell-based, Enterobacter cloacae; settings: 50 μM final drug concentration; for fold induction at 50 µM: Enterobacter cloacae, 3 h
# [7] = tested on: A. baumannii strain 98-37-09; assay type: cell-based, Acinetobacter baumannii; settings: 50 μM final drug concentration; for fold induction at 50 µM: Acinetobacter baumannii, 983709, 3 h
# [8] = cutoff for positive-scoring molecules 3-fold increase, read-out: AK-based Prestwick Library Screening Results, P. aeruginosa (fold increase in extracellular AK activity)
# [9] = cutoff for positive-scoring molecules 3-fold increase, read-out: AK-based Prestwick Library Screening Results, S. aureus (fold increase in extracellular AK activity)
# [10] = cutoff for positive-scoring molecules 3-fold increase, read-out: AK-based Prestwick Library Screening Results, K. pneumoniae (fold increase in extracellular AK activity)
# [11] = cutoff for positive-scoring molecules 3-fold increase, read-out: AK-based Prestwick Library Screening Results, E. coli (fold increase in extracellular AK activity)
# [12] = cutoff for positive-scoring molecules 3-fold increase, read-out: AK-based Prestwick Library Screening Results, E. faecium (fold increase in extracellular AK activity)
# [13] = cutoff for positive-scoring molecules 3-fold increase, read-out: AK-based Prestwick Library Screening Results, E. cloacae (fold increase in extracellular AK activity)
# [14] = cutoff for positive-scoring molecules 3-fold increase, read-out: AK-based Prestwick Library Screening Results, A. baumannii (fold increase in extracellular AK activity)
# [15] = 384-well format, cutoff for positive-scoring molecules 3-fold increase, read-out: AK-based Prestwick Library Screening Results, P. aeruginosa (increase in extracellular AK activity)
# [16] = 384-well format, cutoff for positive-scoring molecules 3-fold increase, read-out: AK-based Prestwick Library Screening Results, S. aureus (increase in extracellular AK activity)
# [17] = 384-well format, cutoff for positive-scoring molecules 3-fold increase, read-out: AK-based Prestwick Library Screening Results, K. pneumoniae (increase in extracellular AK activity)
# [18] = 384-well format, cutoff for positive-scoring molecules 3-fold increase, read-out: AK-based Prestwick Library Screening Results, E. faecium (increase in extracellular AK activity)
# [19] = 384-well format, cutoff for positive-scoring molecules 3-fold increase, read-out: AK-based Prestwick Library Screening Results, E. cloacae (increase in extracellular AK activity)
# [20] = 384-well format, cutoff for positive-scoring molecules 3-fold increase, read-out: AK-based Prestwick Library Screening Results, A. baumannii (increase in extracellular AK activity)
structure (smiles),measurement,setting,value
CN1C(C)(C)CCCC1(C)C [Pempidine tartrate],fold induction at 50 µM,"[1]; planktonic, […], read-out: AK-based Prestwick Library Screening Results, P. aeruginosa (fold increase in extracellular AK activity)",1.1
same,fold induction at 50 µM,"[2]; planktonic, […], read-out: AK-based Prestwick Library Screening Results, S. aureus (fold increase in extracellular AK activity)",1.1
same,fold induction at 50 µM,"[3]; planktonic, […], read-out: AK-based Prestwick Library Screening Results, K. pneumoniae (fold increase in extracellular AK activity)",1
same,fold induction at 50 µM,"[4]; planktonic, […], read-out: AK-based Prestwick Library Screening Results, E. coli (fold increase in extracellular AK activity)",1.1
same,fold induction at 50 µM,"[5]; planktonic, […], read-out: AK-based Prestwick Library Screening Results, E. faecium (fold increase in extracellular AK activity)",1
same,fold induction at 50 µM,"[6]; planktonic, […], read-out: AK-based Prestwick Library Screening Results, E. cloacae (fold increase in extracellular AK activity)",1.5
same,fold induction at 50 µM,"[7]; planktonic, […], read-out: AK-based Prestwick Library Screening Results, A. baumannii (fold increase in extracellular AK activity)",1.1
CC(C)(C)NC[C@H](O)COc1ccccc1C1CCCC1 [Penbutolol sulfate],fold induction at 50 µM,[1]; [8],0.5
same,fold induction at 50 µM,[2]; [9],0.4
same,fold induction at 50 µM,[3]; [10],0.5
same,fold induction at 50 µM,[4]; [11],0.5
same,fold induction at 50 µM,[5]; [12],0.8
same,fold induction at 50 µM,[6]; [13],0.4
same,fold induction at 50 µM,[7]; [14],0.4
N=C(N)c1ccc(OCCCCCOc2ccc(C(=N)N)cc2)cc1 [Pentamidine isethionate],fold induction at 50 µM,"[1]; planktonic, cutoff for positive 3-fold increase, read-out: AK-based Prestwick Library Screening Results, P. aeruginosa (fold increase in extracellular AK activity)",1.2
same,fold induction at 50 µM,"[2]; planktonic, cutoff for positive 3-fold increase, read-out: AK-based Prestwick Library Screening Results, S. aureus (fold increase in extracellular AK activity)",1.9
same,fold induction at 50 µM,"[3]; planktonic, cutoff for positive 3-fold increase, read-out: AK-based Prestwick Library Screening Results, K. pneumoniae (fold increase in extracellular AK activity)",1.2
same,fold induction at 50 µM,"[4]; planktonic, cutoff for positive 3-fold increase, read-out: AK-based Prestwick Library Screening Results, E. coli (fold increase in extracellular AK activity)",1.4
same,fold induction at 50 µM,"[5]; planktonic, cutoff for positive 3-fold increase, read-out: AK-based Prestwick Library Screening Results, E. faecium (fold increase in extracellular AK activity)",1.4
same,fold induction at 50 µM,"[6]; planktonic, cutoff for positive 3-fold increase, read-out: AK-based Prestwick Library Screening Results, E. cloacae (fold increase in extracellular AK activity)",1.4
same,fold induction at 50 µM,"[7]; planktonic, cutoff for positive 3-fold increase, read-out: AK-based Prestwick Library Screening Results, A. baumannii (fold increase in extracellular AK activity)",1.2
O=C(O)CN(CCN(CC(=O)O)CC(=O)O)CCN(CC(=O)O)CC(=O)O [Pentetic acid],fold induction at 50 µM,[1]; [8],1.2
same,fold induction at 50 µM,[2]; [9],1.4
same,fold induction at 50 µM,[3]; [10],1.1
same,fold induction at 50 µM,[4]; [11],1.3
same,fold induction at 50 µM,[5]; [12],1
same,fold induction at 50 µM,[6]; [13],1.5
same,fold induction at 50 µM,[7]; [14],1.3
C[N+]1(CCCCC[N+]2(C)CCCC2)CCCC1.O=C([O-])C(O)C(O)C(=O)O.O=C([O-])C(O)C(O)C(=O)O [Pentolinium bitartrate],"AK-based Prestwick Library Screening Results, P. aeruginosa (increase in extracellular AK activity)","[1]; 384-well format, […]",1.0
same,"AK-based Prestwick Library Screening Results, S. aureus (increase in extracellular AK activity)","[2]; 384-well format, […]",0.7
same,"AK-based Prestwick Library Screening Results, K. pneumoniae (increase in extracellular AK activity)","[3]; 384-well format, […]",0.7
same,"AK-based Prestwick Library Screening Results, E. coli (increase in extracellular AK activity)","[4]; 384-well format, […]",0.8
same,"AK-based Prestwick Library Screening Results, E. faecium (increase in extracellular AK activity)","[5]; 384-well format, […]",0.9
same,"AK-based Prestwick Library Screening Results, E. cloacae (increase in extracellular AK activity)","[6]; 384-well format, […]",1.1
same,"AK-based Prestwick Library Screening Results, A. baumannii (increase in extracellular AK activity)","[7]; 384-well format, […]",1.0
CC(=O)CCCCn1c(=O)c2c(ncn2C)n(C)c1=O [Pentoxifylline],fold induction at 50 µM,[1]; [15],0.8
same,fold induction at 50 µM,[2]; [16],0.8
same,fold induction at 50 µM,[3]; [17],0.7
same,fold induction at 50 µM,"[4]; 384-well format, cutoff for positive-scoring molecules 3-fold increase, read-out: AK-based Prestwick Library Screening Results, E. coli (increase in extracellular AK activity)",0.8
same,fold induction at 50 µM,[5]; [18],0.9
same,fold induction at 50 µM,[6]; [19],1.1
same,fold induction at 50 µM,[7]; [20],0.9
C1CCc2nnnn2CC1 [Pentylenetetrazole],fold induction at 50 µM,[1]; [15],0.7
same,fold induction at 50 µM,[2]; [16],0.7
same,fold induction at 50 µM,[3]; [17],0.5
same,fold induction at 50 µM,"[4]; 384-well format, […], read-out: AK-based Prestwick Library Screening Results, E. coli (increase in extracellular AK activity)",0.6
same,fold induction at 50 µM,[5]; [18],1
same,fold induction at 50 µM,[6]; [19],0.6
same,fold induction at 50 µM,[7]; [20],0.6
CC(C)CC(=O)N[C@H](C(=O)N[C@H](C(=O)N[C@@H](CC(C)C)[C@@H](O)CC(=O)N[C@@H](C)C(=O)N[C@@H](CC(C)C)[C@@H](O)CC(=O)O)C(C)C)C(C)C [Pepstatin A] (Isovaleryl-VV[Sta]A[Sta]-OH),AK-based Prestwick Library Screening Results: P. aeruginosa (increase in extracellular AK activity),"[1]; planktonic P. aeruginosa, 384-well, […]",0.4
same,AK-based Prestwick Library Screening Results: S. aureus (increase in extracellular AK activity),"[2]; planktonic S. aureus, 384-well, […]",0.4
same,AK-based Prestwick Library Screening Results: K. pneumoniae (increase in extracellular AK activity),"[3]; planktonic K. pneumoniae, 384-well, […]",0.5
same,AK-based Prestwick Library Screening Results: E. coli (increase in extracellular AK activity),"[4]; planktonic E. coli, 384-well, […]",0.5
same,AK-based Prestwick Library Screening Results: E. faecium (increase in extracellular AK activity),"[5]; planktonic E. faecium, 384-well, […]",0.8
same,AK-based Prestwick Library Screening Results: E. cloacae (increase in extracellular AK activity),"[6]; planktonic E. cloacae, 384-well, […]",0.4
same,AK-based Prestwick Library Screening Results: A. baumannii (increase in extracellular AK activity),"[7]; planktonic A. baumannii, 384-well, […]",0.4
CCCN1C[C@H](CSC)C[C@@H]2c3cccc4[nH]cc(c34)C[C@H]21 [Pergolide mesylate],fold induction at 50 µM,"[1]; planktonic P. aeruginosa, 384-well, cutoff for positive-scoring molecules 3-fold increase, read-out: AK-based Prestwick Library Screening Results: P. aeruginosa (increase in extracellular AK activity)",1
same,fold induction at 50 µM,"[2]; planktonic S. aureus, 384-well, cutoff for positive-scoring molecules 3-fold increase, read-out: AK-based Prestwick Library Screening Results: S. aureus (increase in extracellular AK activity)",1
same,fold induction at 50 µM,"[3]; planktonic K. pneumoniae, 384-well, cutoff for positive-scoring molecules 3-fold increase, read-out: AK-based Prestwick Library Screening Results: K. pneumoniae (increase in extracellular AK activity)",0.8
same,fold induction at 50 µM,"[4]; planktonic E. coli, 384-well, cutoff for positive-scoring molecules 3-fold increase, read-out: AK-based Prestwick Library Screening Results: E. coli (increase in extracellular AK activity)",1.3
same,fold induction at 50 µM,"[5]; planktonic E. faecium, 384-well, cutoff for positive-scoring molecules 3-fold increase, read-out: AK-based Prestwick Library Screening Results: E. faecium (increase in extracellular AK activity)",1
same,fold induction at 50 µM,"[6]; planktonic E. cloacae, 384-well, cutoff for positive-scoring molecules 3-fold increase, read-out: AK-based Prestwick Library Screening Results: E. cloacae (increase in extracellular AK activity)",1.4
same,fold induction at 50 µM,"[7]; planktonic A. baumannii, 384-well, cutoff for positive-scoring molecules 3-fold increase, read-out: AK-based Prestwick Library Screening Results: A. baumannii (increase in extracellular AK activity)",1.3
